Experimental data reported in PMC10839966, “Identification and evaluation of small-molecule inhibitors against the dNTPase SAMHD1 via a comprehensive screening funnel” (iScience, 2024).
“Also recorded” adds a separate entry of the source. Like-named read-outs stand apart in the source and are kept apart here.

Columns and labels:
[1] = system: T1, cellular SAMHD1 in intact THP-1 cells; experiment: CETSA using intact THP-1 cells; type: cell-based, Human; conditions: 100 μM inhibitors or 10 mM thymidine, 2 h; isothermal at 53°C for inhibitors
T1 construct: lysate from THP-1 cells expressing endogenous wild-type SAMHD1; endogenous in cells; host or cells: THP-1
Protocol: (§1) Samples were subsequently rested at RT for 3 min, supplemented with 40 μL sample buffer (50 mM HEPES pH 7.5, 5 mM β-glycerophosphate, 0.1 mM Na3VO4, 10 mM MgCl2, 2 mM TCEP, 1X cOmplete, Mini, EDTA-free protease inhibitor cocktail), and then lysed through three freeze-thaw cycles with alternating ethanol/dry ice and 37°C water bath. Finally, lysates were clarified by centrifugation at 17,000g for 20 min and then analysed by Western blot. […] Following heating, samples were rested at RT for 3 min, clarified by centrifugation, and finally analysed by Western blot. Protein band intensities were normalised to that of the thermally stable loading control SOD-1, and were curve-fitted via a Boltzmann sigmoidal model (GraphPad Prism) to determine Tagg.

recombinant SAMHD1 [2] = target: T2, recombinant SAMHD1 (Homo sapiens, UniProt Q9Y3Z3); experiment: Differential scanning fluorometry (DSF); type: binding; conditions: for Effect on SAMHD1 thermal stability / Tm1: absence of nucleotides, up to 200 μM (0.2–[…]); for Effect on GTP-induced SAMHD1 dimerization (Tm1 transition): order-of-addition, 0.1 mM TH6342, 0.5 mM TH7127 pre-incubated before low GTP, TH7126 before or after GTP
T2 construct: His-tag (N); made in house; host or cells: E. coli BL21 (DE3)
T2 sequence (Q9Y3Z3 whole entry): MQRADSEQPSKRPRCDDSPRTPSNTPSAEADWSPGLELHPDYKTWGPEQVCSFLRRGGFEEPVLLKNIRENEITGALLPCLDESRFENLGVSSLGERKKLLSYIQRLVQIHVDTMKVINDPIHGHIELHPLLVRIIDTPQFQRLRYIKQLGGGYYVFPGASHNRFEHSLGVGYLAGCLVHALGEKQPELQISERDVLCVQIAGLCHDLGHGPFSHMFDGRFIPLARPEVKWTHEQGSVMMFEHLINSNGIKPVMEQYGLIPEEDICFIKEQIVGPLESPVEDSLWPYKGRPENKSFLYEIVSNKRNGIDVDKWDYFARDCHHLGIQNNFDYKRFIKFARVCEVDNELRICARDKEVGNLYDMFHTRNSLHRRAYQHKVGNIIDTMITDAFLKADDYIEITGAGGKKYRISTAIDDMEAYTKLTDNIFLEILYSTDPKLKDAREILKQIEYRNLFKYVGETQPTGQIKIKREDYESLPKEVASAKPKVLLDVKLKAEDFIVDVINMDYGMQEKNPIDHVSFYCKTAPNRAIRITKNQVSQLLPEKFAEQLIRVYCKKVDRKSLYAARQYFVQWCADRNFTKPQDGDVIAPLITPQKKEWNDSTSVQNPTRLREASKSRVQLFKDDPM
Protocol: The assay mixture was then subject to a 20-85/90°C temperature gradient for 20 min, with the fluorescence intensities (RFU) measured every second using a LightCycler 480 Instrument II (Roche Life Science). […] Melting temperatures (Tm) were identified by the minima of the negative first derivative (-dRFU/dT) of fluorescence intensity (LightCycler 480 Software).

recombinant SAMHD1 [3] = target: T2, recombinant SAMHD1; experiment: Dynamic light scattering (DLS), SAMHD1 particle size; conditions: 1 mM compound, 1 mM GTP
Protocol: SAMHD1 particle size distribution was determined using a Malvern ZETASIZER (Ultra) (Malvern Instruments). […] Raw intensity-weighted data were converted to volume distribution by built-in algorithms to mitigate the impact of aggregated protein species.

recombinant SAMHD1 [4] = target: T2, recombinant SAMHD1; experiment: In vitro chemical crosslinking (glutaraldehyde), SAMHD1 multimers; conditions: 1.875 mM glutaraldehyde, GTP 0-5 mM
SAMHD1^Y146S/Y154S = system: T3, SAMHD1^Y146S/Y154S; experiment: CETSA using lysates of SAMHD1−/− THP-1 cells with rescue expression of dimerization-defective variant; type: binding, Human; conditions: versus DMSO, full melt curves, 100 μM
T3 construct: expressed in transfected cells; host or cells: SAMHD1-/- THP-1 cell clone

[5] = system: T4, wild-type SAMHD1 in THP-1 cell lysates; experiment: CETSA using THP-1 cell lysates, wild-type SAMHD1; type: binding, Human
T4 construct: lysate from THP-1 cells expressing endogenous wild-type SAMHD1; endogenous in cells; host or cells: THP-1
Protocol: as §1

recombinant SAMHD1 [6] = target: T2, recombinant SAMHD1; experiment: Enzyme-coupled malachite green assay, SAMHD1 in vitro activity (dGTP, ara-CTP, Cl-F-ara-ATP substrates); type: biochemical
[7] = system: T5, cellular SAMHD1 in THP-1 cell lysate; experiment: Drug affinity responsive target stability (DARTS) on THP-1 cell lysates; type: binding, Human; conditions: 100 μM compound or 5 mM dGTP
T5 construct: lysate from THP-1 cells expressing endogenous wild-type SAMHD1; endogenous in cells; host or cells: THP-1
Protocol: Lysates were then clarified by centrifugation at 16000 x g for 10 min at 4°C. Protein concentrations of the clarified lysates were subsequently determined by Pierce™ Coomassie plus (Bradford) assay reagent (Thermo Scientific), and samples were diluted in 1x TN buffer (50 mM Tris-HCl pH 8.0, 50 mM NaCl) to a total protein concentration of 1 mg/mL. […] Digestion was stopped by the addition of 4x Laemmli sample buffer (Bio-Rad) supplemented with 100 mM DTT and heating at 95°C for 5 min.

recombinant SAMHD1 [8] = target: T2, recombinant SAMHD1; experiment: B4NPP direct SAMHD1 enzymatic assay; type: biochemical; conditions: for Inhibition of SAMHD1 activity against B4NPP (in words): 2 mM B4NPP
[9] = system: recombinant MTH1, dCTPase, dUTPase, ITPase, NUDT5, NUDT12, NUDT15 and NUDT22; experiment: Compound selectivity, enzyme-coupled MG assays against panel of nucleoside pyro-/tri-phosphatases; type: biochemical, human; conditions: assayed up to 100 μM
recombinant SAMHD1 [10] = target: T2, recombinant SAMHD1; experiment: Kinetic study, enzyme-coupled MG assay with matrix of inhibitors and dGTP; type: biochemical; conditions: inhibitor 0.03-20 μM added before dGTP 6.25-200 μM
Protocol: The reactions are performed on 384-well plates with a final volume of 20 μl and DMSO level controlled at 1%, where all reagents are dispensed using a D300e Digital Dispenser (Tecan). […] Following 20 min incubation at RT, the reaction was then quenched by EDTA, Subsequently, the malachite green reagent was added at 10 μl/well, and upon incubation at RT for 20 min, [MUT] was read in a Hidex Sense microplate reader. Standard curves of inorganic sodium phosphate were constructed to determine amount of phosphate released, and subsequently used to determine reaction kinetics (GraphPad Prism).

[11] = substrate Cl-F-ara-ATP 50 μM with GTP 12.5 μM as activator, read-out: IC50 (μM) Cl-F-ara-ATP
[12] = substrate ara-CTP 200 μM with dGTPαS 3.125 μM as activator, read-out: IC50 (μM) araCTP
[13] = substrate dGTP 25 μM, read-out: IC50 (μM) dGTP

Structure (SMILES)	Effect on SAMHD1 thermal stability / Tm1 (recombinant SAMHD1 [2])	Effect on GTP-induced SAMHD1 dimerization (Tm1 transition) (recombinant SAMHD1 [2])	IC50 (recombinant SAMHD1 [6]; [11])	IC50 (recombinant SAMHD1 [6]; [12])	IC50 (recombinant SAMHD1 [6]; [13])	SAMHD1 stability to pronase treatment [7]	Inhibition of SAMHD1 activity against B4NPP (in words) (recombinant SAMHD1 [8]; Mn2+)	Selectivity for SAMHD1 versus panel of nucleotide phosphatases [9]	Effect on reaction kinetics / Hill coefficient (Hn) (recombinant SAMHD1 [10])	other results
Cc1cn([C@H]2C[C@H](O)[C@@H](CO)O2)c(=O)[nH]c1=O [thymidine, Thymidine]	–	–	–	–	–	–	–	–	–	SAMHD1 stabilization against heat, intact cells [1]: substantially stabilized SAMHD1
Nc1nc2c(ncn2[C@H]2C[C@H](O)[C@@H](COP(O)(=S)OP(=O)(O)OP(=O)(O)O)O2)c(=O)[nH]1 (stereo partly drawn) [dGTPαS, reference compound]	–	–	–	–	–	–	–	–	–	Tm3 (recombinant SAMHD1 [2]; SAMHD1 melting temperature with dGTPαS up to 1 mM): ~70 °C
Clc1ccccc1-c1cn2ccnc2c(NCCc2ccccn2)n1 [TH6342, 6-(2-chlorophenyl)-N-(2-(pyridin-2-yl)ethyl)imidazo[1,2-a]pyrazin-8-amine]	small concentration-dependent reduction in Tm1	the allosteric activator was not able to fully remove the Tm1 transition	5.8 µM	11 µM	9.1 µM	Neither TH6342 nor TH7127 in cell lysates altered SAMHD1 stability to pronase treatment	retained their inhibitory activities	selectively inhibited SAMHD1	significantly increased hill coefficients	Effect on GTP-induced SAMHD1 dimerization (DLS) (recombinant SAMHD1 [3]): deterred GTP (1 mM)-induced SAMHD1 dimerization; Effect on GTP-induced SAMHD1 multimerization (crosslinking) (recombinant SAMHD1 [4]): deterred GTP-induced SAMHD1 multimerization; Effect on thermal stability of nucleotide-bound SAMHD1 (recombinant SAMHD1 [2]; 0.5 mM compound added after GTP at 5 mM or dGTPαS at 1 mM): mildly destabilized GTP-bound, but not dGTPαS-bound, SAMHD1 species; Increase of aggregation temperature (Tagg) (SAMHD1^Y146S/Y154S): ~1 °C; Aggregation temperature (Tagg) ± SE (°C) ([5]; Figure 7F, SAMHD1 Tagg summary, wild-type SAMHD1 lysate, 100 μM compound, DMSO 44.8 ± 0.6): 46.1 ± 0.4 °C
Nc1ccccc1-c1cn2ccnc2c(NCCc2ccccn2)n1 [TH7126, 6-(2-aminophenyl)-N-(2-(pyridin-2-yl)ethyl)imidazo[1,2-a]pyrazin-8-amine]	did not alter SAMHD1 thermal stability	did not disrupt SAMHD1 dimerization	> 100 µM	> 100 µM	> 100 µM	–	minimal inhibition	–	did not alter the reaction kinetics	Inhibition of SAMHD1 (in words) (recombinant SAMHD1 [6]; dGTP, ara-CTP and Cl-F-ara-ATP substrates): Neg. control; also recorded: minimal inhibition
COc1ccccc1-c1cn2ccnc2c(NCCc2ccccn2)n1 [TH7127, 6-(2-methoxyphenyl)-N-(2-(pyridin-2-yl)ethyl)imidazo[1,2-a]pyrazin-8-amine]	small concentration-dependent reduction in Tm1	the allosteric activator was not able to fully remove the Tm1 transition	4 µM	4.5 µM	4.9 µM	Neither TH6342 nor TH7127 in cell lysates altered SAMHD1 stability to pronase treatment	retained their inhibitory activities	selectively inhibited SAMHD1	significantly increased hill coefficients	Ki (recombinant SAMHD1 [8]; B4NPP substrate, Mn2+, global fit, mixed inhibition model): 20.1 µM; Mode of inhibition (recombinant SAMHD1 [8]; B4NPP substrate, global fitting): mixed mode of inhibition; alpha (α) (recombinant SAMHD1 [8]; B4NPP substrate, global fit, mixed inhibition model): 0.36
c1ccc(CCNc2nc(-c3cccs3)cn3ccnc23)nc1 [TH7528, N-(2-(pyridin-2-yl)ethyl)-6-(thiophen-2-yl)imidazo[1,2-a]pyrazin-8-amine]	small concentration-dependent reduction in Tm1	–	2.6 µM	2.8 µM	4.5 µM	–	retained their inhibitory activities	selectively inhibited SAMHD1	significantly increased hill coefficients	–
Nc1nc2c(ncn2[C@H]2C[C@H](O)[C@@H](COP(=O)(O)OP(=O)(O)OP(=O)(O)O)O2)c(=O)[nH]1 [dGTP, reference compound]	–	–	–	–	–	substantially stabilized SAMHD1	–	–	–	SAMHD1 stabilization against heat, cell lysate ([5]; 100 μM inhibitors or 5 mM dGTP, isothermal at 45°C for inhibitors): substantially stabilized SAMHD1
